Assay results as given in ChEMBL document CHEMBL4800731, “Data for DCP probe JNJ-65355394” (2021).
The source made the active and inactive calls. The calls are words filed in the database; no cut-off is given here.

Key:
[1] = target: Kappa-type opioid receptor (Homo sapiens, UniProt P41145); test: GPCRScan assay: inhibition of KOR; parameters: radioligand conc. used [nm] 0.6 – 1.2, parental cells stable HEK
Protein O-GlcNAcase = target: T1, Protein O-GlcNAcase (Homo sapiens, UniProt O60502); test: Cell-based OGA assay
T1 sequence (O60502 whole entry): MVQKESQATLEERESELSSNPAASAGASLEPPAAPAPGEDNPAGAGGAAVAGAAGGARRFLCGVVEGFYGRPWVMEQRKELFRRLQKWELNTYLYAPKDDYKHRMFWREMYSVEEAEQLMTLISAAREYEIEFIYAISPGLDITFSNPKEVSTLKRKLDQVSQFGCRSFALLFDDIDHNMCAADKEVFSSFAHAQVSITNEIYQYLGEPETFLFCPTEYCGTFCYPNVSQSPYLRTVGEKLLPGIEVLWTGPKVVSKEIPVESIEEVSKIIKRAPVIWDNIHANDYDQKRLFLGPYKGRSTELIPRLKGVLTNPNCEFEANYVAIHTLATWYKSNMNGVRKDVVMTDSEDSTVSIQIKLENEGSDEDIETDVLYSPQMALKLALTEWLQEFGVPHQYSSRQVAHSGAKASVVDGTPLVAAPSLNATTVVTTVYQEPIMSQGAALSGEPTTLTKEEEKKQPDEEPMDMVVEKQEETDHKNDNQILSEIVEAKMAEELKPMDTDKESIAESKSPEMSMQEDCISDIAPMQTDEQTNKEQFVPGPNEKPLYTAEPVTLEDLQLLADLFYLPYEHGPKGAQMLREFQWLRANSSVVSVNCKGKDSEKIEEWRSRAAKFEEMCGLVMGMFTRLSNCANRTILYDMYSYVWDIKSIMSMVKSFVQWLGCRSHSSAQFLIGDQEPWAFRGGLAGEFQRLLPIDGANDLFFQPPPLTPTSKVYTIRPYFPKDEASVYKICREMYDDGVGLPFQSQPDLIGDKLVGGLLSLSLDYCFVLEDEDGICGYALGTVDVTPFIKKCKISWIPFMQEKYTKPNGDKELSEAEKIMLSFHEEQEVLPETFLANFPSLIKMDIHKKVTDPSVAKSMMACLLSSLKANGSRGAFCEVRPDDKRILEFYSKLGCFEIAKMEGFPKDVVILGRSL

[2] = cML1 Cerep panel
[3] = target: 5-hydroxytryptamine receptor 2A (Homo sapiens) (UniProt P28223); test: h5HT2A Cerep panel
[4] = target: Melanocortin receptor 4 (Homo sapiens) (UniProt P32245); test: hMC4 Cerep panel
Chain of Melanocortin receptor 4 (Homo sapiens) (P32245 whole entry): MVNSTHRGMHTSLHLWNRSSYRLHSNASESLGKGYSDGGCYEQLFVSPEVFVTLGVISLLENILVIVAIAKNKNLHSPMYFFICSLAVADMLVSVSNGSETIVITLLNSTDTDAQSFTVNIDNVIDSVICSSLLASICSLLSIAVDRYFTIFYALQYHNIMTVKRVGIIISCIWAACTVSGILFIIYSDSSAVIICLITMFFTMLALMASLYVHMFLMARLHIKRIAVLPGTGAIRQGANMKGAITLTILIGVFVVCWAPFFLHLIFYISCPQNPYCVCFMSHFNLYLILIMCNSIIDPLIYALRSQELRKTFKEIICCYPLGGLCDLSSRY

[5] = target: Neuropeptide Y receptor type 1 (Homo sapiens) (UniProt P25929); test: hNPY1 Cerep panel
[6] = target: Vasoactive intestinal polypeptide receptor 1 (Homo sapiens) (UniProt P32241); test: hVPAC1 Cerep panel
[7] = target: Adenosine receptor A2a (Homo sapiens) (UniProt P29274); test: hA2A Cerep panel
Rattus norvegicus [8] = species: Rattus norvegicus; test: rBZD Cerep panel
[9] = target: Cholecystokinin receptor type A (Homo sapiens) (UniProt P32238); test: hCCKA Cerep panel
Chain of Cholecystokinin receptor type A (Homo sapiens) (P32238 whole entry): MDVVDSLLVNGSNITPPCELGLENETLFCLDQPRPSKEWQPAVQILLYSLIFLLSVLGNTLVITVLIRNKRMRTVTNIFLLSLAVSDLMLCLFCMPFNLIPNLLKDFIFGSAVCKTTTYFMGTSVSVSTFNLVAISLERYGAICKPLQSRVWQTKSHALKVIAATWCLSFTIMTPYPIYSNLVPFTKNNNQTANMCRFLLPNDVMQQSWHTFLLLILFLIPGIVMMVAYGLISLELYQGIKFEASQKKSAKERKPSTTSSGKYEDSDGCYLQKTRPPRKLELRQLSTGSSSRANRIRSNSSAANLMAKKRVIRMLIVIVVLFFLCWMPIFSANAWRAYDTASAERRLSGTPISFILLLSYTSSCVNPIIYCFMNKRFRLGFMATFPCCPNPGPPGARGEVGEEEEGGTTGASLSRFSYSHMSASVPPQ

[10] = target: D(1A) dopamine receptor (Homo sapiens) (UniProt P21728); test: hD1 Cerep panel
Chain of D(1A) dopamine receptor (Homo sapiens) (P21728 whole entry): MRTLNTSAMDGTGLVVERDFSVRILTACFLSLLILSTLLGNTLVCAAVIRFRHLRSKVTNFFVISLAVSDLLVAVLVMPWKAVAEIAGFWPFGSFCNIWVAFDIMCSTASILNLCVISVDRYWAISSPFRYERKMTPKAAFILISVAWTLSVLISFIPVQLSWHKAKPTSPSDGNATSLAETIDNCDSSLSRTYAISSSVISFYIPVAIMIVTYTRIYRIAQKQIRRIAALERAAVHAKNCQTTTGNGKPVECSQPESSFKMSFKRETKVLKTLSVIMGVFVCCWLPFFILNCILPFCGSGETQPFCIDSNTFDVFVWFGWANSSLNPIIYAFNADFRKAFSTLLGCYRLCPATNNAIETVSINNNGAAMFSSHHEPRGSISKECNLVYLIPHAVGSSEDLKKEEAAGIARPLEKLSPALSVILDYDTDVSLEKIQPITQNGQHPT

[11] = target: T2, Sodium-dependent dopamine transporter (Homo sapiens, UniProt Q01959); test: hDAT Cerep panel
T2 sequence (Q01959 whole entry): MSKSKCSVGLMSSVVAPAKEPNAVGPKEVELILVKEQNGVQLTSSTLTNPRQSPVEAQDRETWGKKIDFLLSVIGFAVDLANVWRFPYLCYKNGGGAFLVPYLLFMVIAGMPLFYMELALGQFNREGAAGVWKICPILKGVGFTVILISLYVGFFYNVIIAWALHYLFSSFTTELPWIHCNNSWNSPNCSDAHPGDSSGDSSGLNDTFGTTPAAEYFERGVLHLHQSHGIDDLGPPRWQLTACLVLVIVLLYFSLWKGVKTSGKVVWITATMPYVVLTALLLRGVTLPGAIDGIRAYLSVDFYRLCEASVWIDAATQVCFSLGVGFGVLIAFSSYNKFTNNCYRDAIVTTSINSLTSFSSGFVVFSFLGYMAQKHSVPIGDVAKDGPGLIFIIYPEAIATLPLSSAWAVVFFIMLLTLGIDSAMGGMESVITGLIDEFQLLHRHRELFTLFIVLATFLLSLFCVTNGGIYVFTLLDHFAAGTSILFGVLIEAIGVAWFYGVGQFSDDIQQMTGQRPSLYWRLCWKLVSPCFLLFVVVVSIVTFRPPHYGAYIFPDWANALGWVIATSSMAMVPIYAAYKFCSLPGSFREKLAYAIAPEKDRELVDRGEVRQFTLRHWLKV

[12] = target: Muscarinic acetylcholine receptor M3 (Homo sapiens) (UniProt P20309); test: hM3 Cerep panel
[13] = target: Neuromedin-K receptor (Homo sapiens) (UniProt P29371); test: hNK3 Cerep panel
Chain of Neuromedin-K receptor (Homo sapiens) (P29371 whole entry): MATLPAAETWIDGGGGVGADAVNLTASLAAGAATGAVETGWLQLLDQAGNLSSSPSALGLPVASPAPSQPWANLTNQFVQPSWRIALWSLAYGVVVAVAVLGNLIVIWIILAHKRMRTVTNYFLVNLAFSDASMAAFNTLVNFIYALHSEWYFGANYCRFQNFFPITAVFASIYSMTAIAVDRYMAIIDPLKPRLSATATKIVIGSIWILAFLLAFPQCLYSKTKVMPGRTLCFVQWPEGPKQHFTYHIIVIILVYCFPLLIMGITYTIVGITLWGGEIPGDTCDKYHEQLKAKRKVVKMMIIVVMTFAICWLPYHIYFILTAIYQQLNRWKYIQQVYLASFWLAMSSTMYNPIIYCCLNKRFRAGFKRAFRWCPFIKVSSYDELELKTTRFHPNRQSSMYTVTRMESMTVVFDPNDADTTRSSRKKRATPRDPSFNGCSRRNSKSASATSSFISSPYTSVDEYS

[14] = target: Neurotensin receptor type 1 (Homo sapiens) (UniProt P30989); test: hNT1 Cerep panel
[15] = target: Delta-type opioid receptor (Homo sapiens) (UniProt P41143); test: hOP1 Cerep panel
Chain of Delta-type opioid receptor (Homo sapiens) (P41143 whole entry): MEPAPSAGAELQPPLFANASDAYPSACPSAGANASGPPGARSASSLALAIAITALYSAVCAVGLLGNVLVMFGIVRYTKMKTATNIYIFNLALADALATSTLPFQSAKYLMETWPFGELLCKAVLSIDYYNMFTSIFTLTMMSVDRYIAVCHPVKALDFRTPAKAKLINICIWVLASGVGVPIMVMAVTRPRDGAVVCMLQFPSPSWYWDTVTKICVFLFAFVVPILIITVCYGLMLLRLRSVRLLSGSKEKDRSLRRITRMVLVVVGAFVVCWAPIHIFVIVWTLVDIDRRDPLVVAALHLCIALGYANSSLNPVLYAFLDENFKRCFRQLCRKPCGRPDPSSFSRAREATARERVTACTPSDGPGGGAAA

[16] = target: 5-hydroxytryptamine receptor 5A (Homo sapiens) (UniProt P47898); test: h5HT5A Cerep panel
[17] = target: 5-hydroxytryptamine receptor 6 (Homo sapiens) (UniProt P50406); test: h5HT6 Cerep panel
[18] = target: 5-hydroxytryptamine receptor 7 (Homo sapiens) (UniProt P34969); test: h5HT7 Cerep panel
[19] = target: Vasopressin V1a receptor (Homo sapiens) (UniProt P37288); test: hV1a Cerep panel
Rattus norvegicus [20] = species: Rattus norvegicus; test: rSKCaCH Cerep panel
Rattus norvegicus [21] = species: Rattus norvegicus; test: rCLCH Cerep panel
[22] = target: T3, 5-hydroxytryptamine receptor 3A (Homo sapiens) (UniProt P46098); test: h5HT3 Cerep panel
T3 sequence (whole entry): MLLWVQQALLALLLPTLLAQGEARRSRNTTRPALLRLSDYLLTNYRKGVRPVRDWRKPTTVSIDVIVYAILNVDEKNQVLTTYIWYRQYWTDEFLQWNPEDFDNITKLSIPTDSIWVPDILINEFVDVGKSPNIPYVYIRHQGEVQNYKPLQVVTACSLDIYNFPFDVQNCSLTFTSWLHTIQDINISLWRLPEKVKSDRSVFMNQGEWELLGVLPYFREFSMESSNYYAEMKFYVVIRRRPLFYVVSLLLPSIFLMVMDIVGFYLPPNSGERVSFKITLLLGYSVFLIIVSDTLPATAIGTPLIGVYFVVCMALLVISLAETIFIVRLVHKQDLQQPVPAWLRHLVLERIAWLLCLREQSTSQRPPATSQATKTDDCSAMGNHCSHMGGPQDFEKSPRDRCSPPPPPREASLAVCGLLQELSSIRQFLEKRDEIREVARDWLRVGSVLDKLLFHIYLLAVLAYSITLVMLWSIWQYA

[23] = target: Histamine H2 receptor (Homo sapiens) (UniProt P25021); test: hH2 Cerep panel
Chain of Histamine H2 receptor (Homo sapiens) (P25021 whole entry): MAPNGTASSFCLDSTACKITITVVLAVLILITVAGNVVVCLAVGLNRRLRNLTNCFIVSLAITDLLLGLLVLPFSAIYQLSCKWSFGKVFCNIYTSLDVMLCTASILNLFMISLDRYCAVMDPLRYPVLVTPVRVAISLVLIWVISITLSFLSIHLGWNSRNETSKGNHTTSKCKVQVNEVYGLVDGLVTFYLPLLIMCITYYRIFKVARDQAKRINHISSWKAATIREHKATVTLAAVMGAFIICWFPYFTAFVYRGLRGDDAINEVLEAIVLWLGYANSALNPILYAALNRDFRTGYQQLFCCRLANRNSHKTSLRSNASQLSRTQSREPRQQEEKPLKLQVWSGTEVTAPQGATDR

[24] = target: D(1B) dopamine receptor (Homo sapiens) (UniProt P21918); details: Compound concentration 10.0 uM
Chain of D(1B) dopamine receptor (Homo sapiens) (P21918 whole entry): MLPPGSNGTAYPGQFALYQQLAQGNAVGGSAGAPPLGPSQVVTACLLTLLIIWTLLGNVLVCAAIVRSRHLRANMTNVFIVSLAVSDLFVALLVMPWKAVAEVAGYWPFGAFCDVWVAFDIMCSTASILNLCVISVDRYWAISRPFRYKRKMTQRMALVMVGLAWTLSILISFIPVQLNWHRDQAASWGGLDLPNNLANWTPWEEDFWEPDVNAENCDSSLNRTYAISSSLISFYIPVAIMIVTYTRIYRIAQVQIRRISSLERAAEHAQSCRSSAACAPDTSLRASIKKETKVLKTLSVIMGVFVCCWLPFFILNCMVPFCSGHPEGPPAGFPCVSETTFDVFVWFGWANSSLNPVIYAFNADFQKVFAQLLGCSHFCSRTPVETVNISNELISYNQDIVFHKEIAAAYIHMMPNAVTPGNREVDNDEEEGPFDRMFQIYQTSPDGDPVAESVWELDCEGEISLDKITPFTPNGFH

[25] = target: Histamine H2 receptor (Homo sapiens) (UniProt P25021); details: Compound concentration 10.0 uM
[26] = target: Sodium-dependent serotonin transporter (Homo sapiens, UniProt P31645); test: GPCRScan assay: inhibition of SERT; parameters: radioligand conc. used [nm] 1.5 – 2.0, parental cells stable HEK
Chain of Sodium-dependent serotonin transporter (P31645 whole entry): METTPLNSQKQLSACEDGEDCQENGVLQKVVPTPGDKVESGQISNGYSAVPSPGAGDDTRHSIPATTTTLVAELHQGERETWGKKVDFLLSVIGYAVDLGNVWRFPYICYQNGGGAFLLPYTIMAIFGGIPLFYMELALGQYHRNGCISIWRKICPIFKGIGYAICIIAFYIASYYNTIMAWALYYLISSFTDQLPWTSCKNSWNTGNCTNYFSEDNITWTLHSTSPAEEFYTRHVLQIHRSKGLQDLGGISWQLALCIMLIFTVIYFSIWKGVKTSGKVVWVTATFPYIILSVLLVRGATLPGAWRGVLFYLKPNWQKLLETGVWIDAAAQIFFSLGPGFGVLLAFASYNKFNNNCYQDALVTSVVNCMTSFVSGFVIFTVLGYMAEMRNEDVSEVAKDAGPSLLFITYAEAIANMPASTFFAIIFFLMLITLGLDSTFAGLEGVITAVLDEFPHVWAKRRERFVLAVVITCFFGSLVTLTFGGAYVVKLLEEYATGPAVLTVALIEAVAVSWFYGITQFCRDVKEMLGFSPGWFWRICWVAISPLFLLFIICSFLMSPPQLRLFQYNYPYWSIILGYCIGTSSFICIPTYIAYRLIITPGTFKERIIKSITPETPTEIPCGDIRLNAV

[27] = target: T2, Sodium-dependent dopamine transporter; test: GPCRScan assay: inhibition of DAT; parameters: radioligand conc. used [nm] 3.6 – 16.0, parental cells stable HEK
[28] = target: Alpha-2B adrenergic receptor (Homo sapiens, UniProt P18089); test: GPCRScan assay: inhibition of Alpha2B; parameters: radioligand conc. used [nm] 1.5 – 2.0, parental cells HEKT
Chain of Alpha-2B adrenergic receptor (P18089 whole entry): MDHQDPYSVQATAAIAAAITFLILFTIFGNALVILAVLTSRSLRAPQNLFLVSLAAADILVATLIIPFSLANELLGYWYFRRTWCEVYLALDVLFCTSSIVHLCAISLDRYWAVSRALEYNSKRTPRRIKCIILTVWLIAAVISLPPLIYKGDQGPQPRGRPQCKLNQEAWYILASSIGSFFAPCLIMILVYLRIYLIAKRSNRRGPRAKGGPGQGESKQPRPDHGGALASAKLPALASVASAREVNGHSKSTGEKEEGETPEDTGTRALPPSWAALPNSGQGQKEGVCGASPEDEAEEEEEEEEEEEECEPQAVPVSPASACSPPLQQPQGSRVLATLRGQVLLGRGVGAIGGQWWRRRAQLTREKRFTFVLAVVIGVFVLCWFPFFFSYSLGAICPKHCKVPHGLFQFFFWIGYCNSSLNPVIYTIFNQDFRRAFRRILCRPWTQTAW

[29] = target: Sigma non-opioid intracellular receptor 1 (Homo sapiens, UniProt Q99720); test: GPCRScan assay: inhibition of Sigma 1; parameters: radioligand conc. used [nm] 4.0 – 5.0, parental cells HEKT
[30] = target: 5-hydroxytryptamine receptor 1E (Homo sapiens) (UniProt P28566); details: Compound concentration 10.0 uM
[31] = target: D(1A) dopamine receptor (Homo sapiens) (UniProt P21728); details: Compound concentration 10.0 uM
[32] = target: Histamine H4 receptor (Homo sapiens) (UniProt Q9H3N8); details: Compound concentration 10.0 uM
[33] = target: Muscarinic acetylcholine receptor M5 (Homo sapiens) (UniProt P08912); details: Compound concentration 10.0 uM

Chain of Kappa-type opioid receptor (P41145 whole entry): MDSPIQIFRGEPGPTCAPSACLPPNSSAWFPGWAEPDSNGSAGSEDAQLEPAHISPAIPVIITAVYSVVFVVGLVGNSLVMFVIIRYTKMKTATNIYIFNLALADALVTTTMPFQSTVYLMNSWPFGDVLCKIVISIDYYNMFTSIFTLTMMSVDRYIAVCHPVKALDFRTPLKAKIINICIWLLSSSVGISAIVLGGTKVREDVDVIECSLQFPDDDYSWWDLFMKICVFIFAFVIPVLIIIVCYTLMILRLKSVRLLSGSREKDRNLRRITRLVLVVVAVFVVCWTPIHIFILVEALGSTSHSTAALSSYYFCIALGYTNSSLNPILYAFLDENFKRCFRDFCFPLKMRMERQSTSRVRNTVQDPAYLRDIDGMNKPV

**Q.** What does the source list for CC(=O)Nc1ncc(CN2CCC[C@H](Cc3cc(C)nc(C)c3)C2)s1 [JNJ-65355394]?
**A.** Ki ([1]; read-out: Ki): 0.773 µM; Ki ([1]; read-out: pKi (converted)): 0.741 µM; IC50 (Protein O-GlcNAcase): 0.0039 µM (active); effect [2]: 11.5%; effect [3]: 4.1%; effect [4]: 1.3%; effect [5]: -7.35%; effect [6]: -10.1%; effect [7]: 4.9%; effect (Rattus norvegicus [8]): -16.6%; effect [9]: -22%; effect [10]: 20.1%; effect [11]: 19.3%; effect [12]: 45.5%; effect [13]: 7%; effect [14]: 4.15%; effect [15]: 20.4%; effect [16]: -7.65%; effect [17]: 14.2%; effect [18]: -1.65%; effect [19]: 7.65%; effect (Rattus norvegicus [20]): 35.4%; effect (Rattus norvegicus [21]): -5.7%; effect [22]: 1.85%; effect [23]: 11.4%; inhibition [24]: 7.69%; inhibition [25]: 3.45%

**Q.** Which Ki ([26]; read-out: Ki) does the source give for CC(=O)Nc1nc(CN2CCC[C@H](Cc3cc(C)nc(C)c3)C2)cs1 [JNJ-73924149] here?
**A.** 2.61 µM

**Q.** And the Ki ([26]; read-out: pKi (converted))?
**A.** 2.57 µM

**Q.** What about the Ki ([27]; read-out: Ki) of the same compound?
**A.** 5.28 µM

**Q.** What about the Ki ([27]; read-out: pKi (converted)) of the same compound?
**A.** 5.25 µM

**Q.** And the Ki ([28]; read-out: Ki)?
**A.** 3.69 µM

**Q.** And the Ki ([28]; read-out: pKi (converted))?
**A.** 3.67 µM

**Q.** And the Ki [29]?
**A.** 0.0633 µM

**Q.** What about the inhibition [30] of the same compound?
**A.** 0.93%

**Q.** And the inhibition [31]?
**A.** 10.7%

**Q.** And the inhibition [32]?
**A.** -0.6%

**Q.** And the inhibition [33]?
**A.** -6.15%
